From PMC7226027, “Phosphonic Acid Analogs of Fluorophenylalanines as Inhibitors of Human and Porcine Aminopeptidases N: Validation of the Importance of the Substitution of the Aromatic Ring” (Biomolecules, 2020) come the findings set out here.

Read-outs that look alike come from different tables or passages of the source. A value given as a limit tells only on which side of the number the result lay.

Holding throughout (assay type): biochemical
The target of assay [1] is T1, hAPN (recombinant human alanine aminopeptidase, EC 3.4.11.2) (Homo sapiens, UniProt P15144).
T1 construct: gene ANPEP; commercial recombinant enzyme (R&D Systems), lyophilized powder
T1 sequence (P15144 33-967 limits assumed): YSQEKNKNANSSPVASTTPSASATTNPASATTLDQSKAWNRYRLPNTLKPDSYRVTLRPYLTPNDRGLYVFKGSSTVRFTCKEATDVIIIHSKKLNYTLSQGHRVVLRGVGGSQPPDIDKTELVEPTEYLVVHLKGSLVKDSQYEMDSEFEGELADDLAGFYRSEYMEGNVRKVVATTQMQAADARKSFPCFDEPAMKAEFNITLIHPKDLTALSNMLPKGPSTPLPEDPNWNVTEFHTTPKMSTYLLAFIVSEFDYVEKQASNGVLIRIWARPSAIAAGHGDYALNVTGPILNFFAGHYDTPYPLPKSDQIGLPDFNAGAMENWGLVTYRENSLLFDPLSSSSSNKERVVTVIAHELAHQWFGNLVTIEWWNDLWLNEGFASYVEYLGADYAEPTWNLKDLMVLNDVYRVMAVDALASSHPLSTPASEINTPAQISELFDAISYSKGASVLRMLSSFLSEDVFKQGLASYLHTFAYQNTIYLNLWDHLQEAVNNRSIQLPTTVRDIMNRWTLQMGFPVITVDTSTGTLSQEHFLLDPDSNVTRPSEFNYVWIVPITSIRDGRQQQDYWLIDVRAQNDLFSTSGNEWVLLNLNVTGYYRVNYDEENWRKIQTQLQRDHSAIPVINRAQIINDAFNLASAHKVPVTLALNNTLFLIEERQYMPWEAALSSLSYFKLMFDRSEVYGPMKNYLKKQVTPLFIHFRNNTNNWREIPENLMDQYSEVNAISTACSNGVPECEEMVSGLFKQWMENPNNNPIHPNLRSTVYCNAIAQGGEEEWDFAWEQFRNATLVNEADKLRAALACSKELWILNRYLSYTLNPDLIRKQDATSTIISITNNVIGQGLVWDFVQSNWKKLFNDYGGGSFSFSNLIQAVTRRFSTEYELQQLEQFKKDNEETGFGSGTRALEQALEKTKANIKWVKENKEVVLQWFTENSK
Kind of assay: fluorogenic assay, Ala-AMC hydrolysis; Ki by Lineweaver-Burk, Dixon, Cheng-Prusoff. An excerpt:
fluorogenic assay, Ala-AMC hydrolysis; Ki by Lineweaver-Burk, Dixon, Cheng-Prusoff on hAPN (recombinant human alanine aminopeptidase, EC 3.4.11.2)

Assay [2] addresses T2, pAPN (porcine kidney alanine aminopeptidase, EC 3.4.11.2) (Sus scrofa, UniProt P15145).
T2 construct: gene ANPEP; commercial enzyme from porcine kidney (Sigma Aldrich), native purification, lyophilized powder
T2 sequence (P15145 2-963): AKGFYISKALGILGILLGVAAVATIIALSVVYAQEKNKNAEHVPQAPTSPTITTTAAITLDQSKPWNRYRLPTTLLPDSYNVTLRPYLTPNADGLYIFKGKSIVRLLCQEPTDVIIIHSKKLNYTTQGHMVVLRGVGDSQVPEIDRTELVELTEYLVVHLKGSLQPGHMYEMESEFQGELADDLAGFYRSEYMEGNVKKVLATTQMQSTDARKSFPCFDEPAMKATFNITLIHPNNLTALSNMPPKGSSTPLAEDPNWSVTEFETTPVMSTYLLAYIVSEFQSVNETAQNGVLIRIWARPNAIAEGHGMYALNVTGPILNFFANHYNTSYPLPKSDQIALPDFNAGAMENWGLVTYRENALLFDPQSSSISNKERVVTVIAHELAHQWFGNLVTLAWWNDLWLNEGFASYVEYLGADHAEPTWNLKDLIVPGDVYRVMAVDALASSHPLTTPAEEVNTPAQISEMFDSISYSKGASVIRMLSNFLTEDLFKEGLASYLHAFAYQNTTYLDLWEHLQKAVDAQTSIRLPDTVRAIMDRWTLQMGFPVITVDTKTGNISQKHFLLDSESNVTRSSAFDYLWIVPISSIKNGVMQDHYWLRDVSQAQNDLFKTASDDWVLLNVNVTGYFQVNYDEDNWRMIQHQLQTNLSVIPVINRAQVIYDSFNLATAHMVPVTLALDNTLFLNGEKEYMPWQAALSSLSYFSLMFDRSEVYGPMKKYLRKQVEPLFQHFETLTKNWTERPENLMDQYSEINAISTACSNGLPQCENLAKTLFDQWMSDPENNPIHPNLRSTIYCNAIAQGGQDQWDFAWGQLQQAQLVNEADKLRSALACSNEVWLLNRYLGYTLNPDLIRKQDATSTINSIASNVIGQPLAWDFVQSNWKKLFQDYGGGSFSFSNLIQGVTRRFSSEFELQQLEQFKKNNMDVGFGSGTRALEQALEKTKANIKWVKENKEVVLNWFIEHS
Described as above. Conditions: for pAPN Ki (μM): unreliable (value above highest stated concentration, 1 mM). An excerpt: fluorogenic assay, Ala-AMC hydrolysis; Ki by Lineweaver-Burk, Dixon, Cheng-Prusoff on pAPN (porcine kidney alanine aminopeptidase, EC 3.4.11.2)

For assay [3], the target named is T2, pAPN (porcine kidney alanine aminopeptidase, EC 3.4.11.2). Kind of assay: fluorogenic assay (AMC release). Conditions: 50 mM Tris-HCl pH 7.20.
Assay [4] concerns the target T1, hAPN (recombinant human alanine aminopeptidase, EC 3.4.11.2). Kind of assay: fluorogenic assay (AMC release). Conditions: 50 mM Tris-HCl pH 7.00.
Where [5] appears, read: racemate (hydrochloride), 80 µM Ala-AMC, 50 mM Tris-HCl pH 7.20, 37 °C.
Where [6] appears, read: read-out: Inactive (no inhibition up to 1 mM).
Where [7] appears, read: racemate (hydrochloride), 80 µM Ala-AMC, 50 mM Tris-HCl pH 7.20, 37 °C, 0.66 nM enzyme, 30 min enzyme preincubation in buffer.

Consider `NC(Cc1ccccc1F)P(=O)(O)O` (racemic) [1b, 1-Amino-2-(2-fluorophenyl)ethylphosphonic Acid], for which the figures for the Ki in assay [1] and in assay [2] were 18.1 ± 3.7 µM and 256 ± 19 µM, respectively.

Take `NC(Cc1cccc(F)c1)P(=O)(O)O` (racemic) [1c, 1-Amino-2-(3-fluorophenyl)ethylphosphonic Acid]: the Ki stood at 3.39 ± 0.71 µM in assay [1] and 26.4 ± 2 µM in assay [2].

Regarding `NC(Cc1ccc(F)cc1)P(=O)(O)O` (racemic) [1d, 1-Amino-2-(4-fluorophenyl)ethylphosphonic Acid], the Ki in assay [1] is 4.86 ± 1.18 µM; in assay [2], 41.4 ± 2.5 µM.

As to `NC(Cc1ccc(F)cc1F)P(=O)(O)O` (racemic) [1e, 1-Amino-2-(2,4-difluorophenyl)ethylphosphonic Acid], the Ki in assay [1] (read-out: hAPN Ki) came to 13.5 ± 2.7 µM; in assay [2], 95.6 ± 9.6 µM.

As to `NC(Cc1cc(F)ccc1F)P(=O)(O)O` (racemic) [1f, 1-Amino-2-(2,5-difluorophenyl)ethylphosphonic Acid], the results for the Ki in assay [1] (read-out: hAPN Ki) and in assay [2] were 25.9 ± 5 µM and 86.3 ± 8.2 µM, respectively.

`NC(Cc1c(F)cccc1F)P(=O)(O)O` (racemic) [1g, 1-Amino-2-(2,6-difluorophenyl)ethylphosphonic Acid]: the results for the Ki in assay [1] (read-out: hAPN Ki) and in assay [2] were 327 ± 98 µM and 725 ± 121 µM, respectively.

For the compound `NC(Cc1ccc(F)c(F)c1)P(=O)(O)O` (racemic) [1h, 1-Amino-2-(3,4-difluorophenyl)ethylphosphonic Acid], the results for the Ki in assay [1] (read-out: hAPN Ki) and in assay [2] were 1.71 ± 0.52 µM and 15.7 ± 2.5 µM, respectively.

`NC(Cc1cc(F)cc(F)c1)P(=O)(O)O` (racemic) [1i, 1-Amino-2-(3,5-difluorophenyl)ethylphosphonic Acid]: the Ki in assay [1] (read-out: hAPN Ki) came to 0.529 ± 0.088 µM; in assay [2], 8.09 ± 1.1 µM.

Turning to `NC(Cc1cc(F)c(F)cc1F)P(=O)(O)O` (racemic) [1j, 1-Amino-2-(2,4,5-trifluorophenyl)ethylphosphonic Acid], the figures for the Ki in assay [1] (read-out: hAPN Ki) and in assay [2] were 15 ± 2.2 µM and 78.5 ± 3.9 µM, respectively.

For `NC(Cc1c(F)cc(F)cc1F)P(=O)(O)O` (racemic) [1k, 1-Amino-2-(2,4,6-trifluorophenyl)ethylphosphonic Acid], the Ki was 225 ± 47 µM in assay [1] (read-out: hAPN Ki) and 969 ± 158 µM in assay [2].

On to `NC(Cc1cc(F)c(F)c(F)c1)P(=O)(O)O` (racemic) [1l, 1-Amino-2-(3,4,5-trifluorophenyl)ethylphosphonic Acid], for which the results for the Ki in assay [1] (read-out: hAPN Ki) and in assay [2] were 0.793 ± 0.138 µM and 7.1 ± 0.93 µM, respectively.

For the compound `NC(Cc1c(F)c(F)c(F)c(F)c1F)P(=O)(O)O` (racemic) [1m, 1-Amino-2-(2,3,4,5,6-pentafluorophenyl)ethylphosphonic Acid], the figures for the Ki in assay [1] (read-out: hAPN Ki) and in assay [2] were 139 ± 71 µM and 808 ± 132 µM, respectively.

Consider `NC(Cc1cccc(Cl)c1F)P(=O)(O)O` (racemic) [1n, 1-Amino-2-(3-chloro-2-fluorophenyl)ethylphosphonic Acid], for which the Ki turned out to be 18.5 ± 7.1 µM in assay [1] (read-out: hAPN Ki) and 85.1 ± 9.1 µM in assay [2].

With `NC(Cc1ccc(Cl)cc1F)P(=O)(O)O` (racemic) [1o, 1-Amino-2-(4-chloro-2-fluorophenyl)ethylphosphonic Acid], the Ki in assay [1] (read-out: hAPN Ki) was 17.8 ± 2.09 µM; in assay [2], 160 ± 11 µM.

Consider `NC(Cc1cc(Cl)ccc1F)P(=O)(O)O` (racemic) [1p, 1-Amino-2-(5-chloro-2-fluorophenyl)ethylphosphonic Acid], for which the results for the Ki in assay [1] (read-out: hAPN Ki) and in assay [2] were 4.3 ± 0.44 µM and 47.2 ± 1.4 µM, respectively.

Regarding `NC(Cc1c(F)cccc1Cl)P(=O)(O)O` (racemic) [1r, 1-Amino-2-(2-chloro-6-fluorophenyl)ethylphosphonic Acid], the Ki in assay [1] (read-out: hAPN Ki) came out at 360 ± 125 µM. Further, the “pAPN Ki (μM)” value in assay [2] (setting [5]) came to 2557 ± 729 µM.

On to `NC(Cc1ccc(Cl)c(F)c1)P(=O)(O)O` (racemic) [1s, 1-Amino-2-(4-chloro-3-fluorophenyl)ethylphosphonic Acid], for which the Ki in assay [1] (read-out: hAPN Ki) worked out at 1.01 ± 0.16 µM; in assay [2] it was 14.8 ± 0.9 µM.

As for `NC(Cc1ccc(F)c(Cl)c1)P(=O)(O)O` (racemic) [1t, 1-Amino-2-(3-chloro-4-fluorophenyl)ethylphosphonic Acid], the results for the Ki in assay [1] (read-out: hAPN Ki) and in assay [2] were 0.542 ± 0.152 µM and 6.93 ± 0.78 µM, respectively.

As to `NC(Cc1ccc(F)cc1Cl)P(=O)(O)O` (racemic) [1u, 1-Amino-2-(2-chloro-4-fluorophenyl)ethylphosphonic Acid], the values for the Ki in assay [1] (read-out: hAPN Ki) and in assay [2] were 29.1 ± 10.3 µM and 106 ± 12 µM, respectively.

With `NC(Cc1ccccc1C(F)(F)F)P(=O)(O)O` (racemic) [1v, 1-Amino-2-(2-trifluoromethylphenyl)ethylphosphonic Acid], in assay [1] (setting [6]), the Ki was above 1000 µM. Further, the “pAPN Ki (μM)” value in assay [2] (setting [5]) was 2335 ± 617 µM.

For `NC(Cc1cccc(C(F)(F)F)c1)P(=O)(O)O` (racemic) [1w, 1-Amino-2-(3-trifluoromethylphenyl)ethylphosphonic Acid], the Ki in assay [1] (read-out: hAPN Ki) stood at 2.53 ± 0.4 µM; in assay [2], 66 ± 7.3 µM.

Take `NC(Cc1ccc(C(F)(F)F)cc1)P(=O)(O)O` (racemic) [1x, 1-Amino-2-(4-trifluoromethylphenyl)ethylphosphonic Acid]: the Ki in assay [1] (read-out: hAPN Ki) was 24.9 ± 3 µM; in assay [2], 257 ± 27 µM.

On to `NC(Cc1cc(F)ccc1C(F)(F)F)P(=O)(O)O` (racemic) [1y, 1-Amino-2-(5-fluoro-2-trifluoromethylphenyl)ethylphosphonic Acid], for which the Ki in assay [1] (setting [6]) was above 1000 µM. Moreover, the “Inactive (no inhibition up to 1 mM)” value in assay [2] (setting [7]) is reported as above 1 mM.

On to `NC(Cc1ccc(F)c(C(F)(F)F)c1)P(=O)(O)O` (racemic) [1z, 1-Amino-2-(4-fluoro-3-trifluoromethylphenyl)ethylphosphonic Acid], for which the Ki in assay [1] (read-out: hAPN Ki) came to 3.55 ± 0.43 µM; in assay [2], 67.7 ± 5.6 µM.

Consider `NC(CC(F)(F)F)P(=O)(O)O` (racemic) [compound 8, (1-Amino-3,3,3-trifluoropropyl)phosphonic acid], for which the Ki in assay [1] was determined as 84.7 ± 15.8 µM; in assay [2], 755 ± 230 µM.

For `NC(Cc1ccccc1)P(=O)(O)O` (stereo not drawn) [1a, 1-Amino-2-phenylethylphosphonic Acid], the Ki was determined as 15.5 ± 1.7 µM in assay [1] (racemate (hydrochloride), 50 µM Ala-AMC, 50 mM Tris-HCl pH 7.00, 37 °C, 0.66 nM enzyme, 30 min enzyme preincubation in buffer, read-out: hAPN Ki) and 73.3 ± 7.6 µM in assay [2] (setting [7]).

`Cc1cc(=O)oc2cc(NC(=O)[C@H](C)N)ccc12` [Ala-AMC, L-alanine-4-methylcoumaryl-7-amide]: the Km – broadly, the concentration of substrate that gives half-maximal velocity – was 90 µM in assay [3] and 73 µM in assay [4].
